Reference: PubChem BioAssay (NCI)
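Assay format: 96-well plates, 48-hour exposure. TGI is the concentration that stops growth completely.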

What was measured:
Assay in all cases: NCI tumour cell line growth inhibition, 48 h
[1] = test system: 786-0 renal
[2] = test system: UO-31 renal
[3] = test system: EKVX NSCLC
[4] = test system: HCT-116 colon
[5] = test system: COLO 205 colon
[6] = test system: HL-60(TB) leukemia
[7] = test system: NCI/ADR-RES ovarian
[8] = test system: NCI-H226 lung
[9] = test system: SF-268 CNS
[10] = test system: SK-MEL-28 melanoma

Measured: TGI

COC1OC(=O)C(OC)C(OC)C1OC (stereo not given)
> 100 µM: all assays above
